{"source": "patent US8044038B2", "about": "(Fermion Oy, priority 2005, dated 2011)", "key": {"[1]": {"settings": "laser diffraction; for Size of crystals, 10% < / Size of crystals, 50% < / Size of crystals, 90% < / Size of crystals, Mean: quetiapine conc. 20 w-%, ethanol-water 80 w-% (Example 5), 85 w-% (Example 6)", "description": "In examples 5 and 6 the crystal size analysis was performed using laser diffraction analyser (light scattering). Volume cell was 15 ml, optical length 0.6 cm, obscuration about 8 to 12%. Methyl siloxane was used as a dispersant."}}, "note": "Where a name gives a salt, the structure may show the parent alone. Read-outs that look alike come from different tables or passages of the source.", "data": [{"smiles": "OCCOCCN1CCN(C2=Nc3ccccc3Sc3ccccc32)CC1", "note": "[Example 5, quetiapine hemifumarate]", "values": [{"measurement": "Size of crystals, 10% <", "setting": "[1]", "value": 10, "unit": "% < 25 μm"}, {"measurement": "Size of crystals, 50% <", "setting": "[1]", "value": 50, "unit": "% < 83 μm"}, {"measurement": "Size of crystals, 90% <", "setting": "[1]", "value": 90, "unit": "% < 244 μm"}, {"measurement": "Size of crystals, Mean", "setting": "[1]", "value": "Mean: 108 μm"}]}, {"smiles": "OCCOCCN1CCN(C2=Nc3ccccc3Sc3ccccc32)CC1", "note": "[Example 6, quetiapine hemifumarate]", "values": [{"measurement": "Size of crystals, 10% <", "setting": "[1]", "value": 10, "unit": "% < 14 μm"}, {"measurement": "Size of crystals, 50% <", "setting": "[1]", "value": 50, "unit": "% < 44 μm"}, {"measurement": "Size of crystals, 90% <", "setting": "[1]", "value": 90, "unit": "% < 148 μm"}, {"measurement": "Size of crystals, Mean", "setting": "[1]", "value": "Mean: 60 μm"}]}, {"smiles": "OCCOCCN1CCN(C2=Nc3ccccc3Sc3ccccc32)CC1", "note": "[quetiapine hemifumarate, 11-(4-[2-(2-hydroxyethoxy)ethyl]-1-piperazinyl]dibenzo[b,f]-1,4-thiazepine hemifumarate (2:1) salt]", "values": [{"measurement": "90% of the crystals below", "setting": "[1]; water content of crystallization solvent between 15 to 20 w-%", "value": "below 244 μm"}, {"measurement": "size of crystals", "setting": "ratio of alcohol to water 77:22", "value": "50-100 microns"}, {"measurement": "size of crystals", "setting": "ratio of alcohol to water 91:9", "value": "10-20 microns"}]}]}
